Data: ChEMBL document CHEMBL1150490, “Endothelin eceptor Ligands. Multiple D-Amino acid replacement net approach” (Bioorg Med Chem Lett, 1993)

Target: T1, Endothelin-1 receptor (Mus musculus, UniProt Q61614)
T1 sequence (Q61614 whole entry): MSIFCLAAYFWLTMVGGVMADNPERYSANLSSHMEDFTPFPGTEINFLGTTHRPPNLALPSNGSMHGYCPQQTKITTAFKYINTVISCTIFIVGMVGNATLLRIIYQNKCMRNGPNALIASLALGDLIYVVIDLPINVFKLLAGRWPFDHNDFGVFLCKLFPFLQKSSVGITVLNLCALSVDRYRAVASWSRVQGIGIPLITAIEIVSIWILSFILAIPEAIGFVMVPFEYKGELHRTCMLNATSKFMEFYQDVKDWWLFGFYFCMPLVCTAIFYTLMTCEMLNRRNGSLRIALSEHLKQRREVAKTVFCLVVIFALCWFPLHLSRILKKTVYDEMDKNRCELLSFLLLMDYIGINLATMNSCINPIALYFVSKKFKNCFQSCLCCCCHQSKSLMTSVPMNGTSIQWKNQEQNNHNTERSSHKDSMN
Assay: Binding affinity for Endothelin A receptor was determined in murine 3T3 cells
Assay type: cell-based, NIH3T3

SMILES	IC50
CC[C@H](C)[C@H](NC(=O)[C@@H](NC(=O)[C@@H](CC(=O)O)NC(=O)[C@H](N)CCCNC(=O)[C@H](Cc1ccccc1)NC(C)=O)[C@@H](C)CC)C(=O)N[C@@H](Cc1c[nH]c2ccccc12)C(=O)O	0.25 µM
CC[C@H](C)[C@H](NC(=O)[C@H](CC(=O)O)NC(=O)[C@@H](N)CCCNC(=O)[C@H](Cc1ccccc1)NC(C)=O)C(=O)N[C@H](C(=O)N[C@@H](Cc1c[nH]c2ccccc12)C(=O)O)[C@@H](C)CC	0.23 µM
CC[C@H](C)[C@H](NC(=O)[C@H](CC(=O)O)NC(=O)[C@H](N)CCCNC(=O)[C@H](Cc1ccccc1)NC(C)=O)C(=O)N[C@@H](C(=O)N[C@@H](Cc1c[nH]c2ccccc12)C(=O)O)[C@@H](C)CC	0.9 µM
